# From the supplement of paper PMC10307832
# How the values were obtained:
# Assay in all cases: relative viability (nuclei count vs DMSO), 5 days (fraction); higher = more cells survive
# IDH-C35 + Decitabine = compound: Cc1ccccc1C(C(=O)NC1CCCCC1)N(C(=O)Cn1ccnc1C)c1cccc(F)c1 [IDH-C35] + Nc1ncn([C@H]2C[C@H](O)[C@@H](CO)O2)c(=O)n1 [Decitabine] (partner 2 µM)
# Procedure, shortened: (§1)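 A single step with final 0.05% Triton X-100, 1% formaldehyde and 1 ug/ml Hoechst fixed the cells and stained nuclei 5 days after treatment. Lung cancer cell lines in 1536-well plates had been treated by pin tool the day after seeding with one drug alone or a fixed anchor-drug dose plus five library-drug doses (not always all listed) in √10 steps, and nuclei were counted on 4× images. Relative viability is the ratio of nuclei in treated wells to nuclei in vehicle wells, taken as the median of duplicate plates.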
# [1] = compound: CC1=C(C(=NN1)C)CC2=C(C3=C(S2)N(C(=O)N(C3=O)C)CC(C)C)C(=O)N4C[C@@H](CO4)O + C[C@@H](Oc1cc(-c2cnn(C3CCNCC3)c2)cnc1N)c1c(Cl)ccc(F)c1Cl [Crizotinib] (partner 1 µM)
# Procedure, shortened: as §1
# IDH-C35 + Palbociclib = compound: Cc1ccccc1C(C(=O)NC1CCCCC1)N(C(=O)Cn1ccnc1C)c1cccc(F)c1 [IDH-C35] + CC(=O)c1c(C)c2cnc(Nc3ccc(N4CCNCC4)cn3)nc2n(C2CCCC2)c1=O [Palbociclib] (partner 0.5 µM)
# Procedure, shortened: as §1
# [2] = compound: CC1=C(C(=NN1)C)CC2=C(C3=C(S2)N(C(=O)N(C3=O)C)CC(C)C)C(=O)N4C[C@@H](CO4)O + C[C@]1(O)C[C@@H](c2nc(-c3ccc4ccc(-c5ccccc5)nc4c3)c3c(N)nccn32)C1 [Linsitinib] (partner 1 µM)
# Procedure, shortened: as §1
Cell Line,relative viability (IDH-C35 + Decitabine; first compound 0.08 µM),relative viability (IDH-C35 + Decitabine; first compound 0.253 µM),relative viability (IDH-C35 + Decitabine; first compound 0.8 µM),relative viability (IDH-C35 + Decitabine; first compound 2.53 µM),relative viability (IDH-C35 + Decitabine; first compound 8 µM),relative viability ([1]; first compound 0.0025 µM),relative viability ([1]; first compound 0.007906 µM),relative viability ([1]; first compound 0.025 µM),relative viability ([1]; first compound 0.07906 µM),relative viability ([1]; first compound 0.25 µM),relative viability (IDH-C35 + Palbociclib; first compound 0.08 µM),relative viability (IDH-C35 + Palbociclib; first compound 0.253 µM),relative viability (IDH-C35 + Palbociclib; first compound 0.8 µM),relative viability (IDH-C35 + Palbociclib; first compound 2.53 µM),relative viability (IDH-C35 + Palbociclib; first compound 8 µM),relative viability ([2]; first compound 0.0025 µM),relative viability ([2]; first compound 0.007906 µM),relative viability ([2]; first compound 0.025 µM),relative viability ([2]; first compound 0.07906 µM),relative viability ([2]; first compound 0.25 µM)
LK-2,0.327,0.368,0.205,0.395,0.289,0.234,0.206,0.218,0.276,0.204,0.558,0.717,0.683,0.746,0.74,0.695,0.674,0.495,0.566,0.815
LOU-NH91,0.808,0.799,0.795,0.767,0.799,0.735,0.733,0.797,0.741,0.732,0.553,0.558,0.54,0.551,0.519,0.958,0.843,1.06,1.12,1.02
LU99A,0.963,0.853,0.944,0.867,0.849,0.542,0.592,0.533,0.566,0.648,0.38,0.418,0.394,0.398,0.403,0.592,0.542,0.522,0.583,0.567
LXF-289,0.405,0.401,0.38,0.371,0.415,0.817,0.735,0.818,0.789,0.818,0.574,0.584,0.591,0.604,0.583,1.02,0.919,0.957,0.953,1.04
NCI-H23,0.332,0.35,0.336,0.332,0.312,0.519,0.613,0.499,0.568,0.604,0.55,0.494,0.43,0.525,0.538,0.521,0.548,0.516,0.565,0.777
NCI-H322M,0.686,0.701,0.695,0.718,0.78,1.03,1.03,0.758,0.927,0.998,0.523,0.48,0.493,0.493,0.49,0.92,0.975,0.942,0.899,0.722
NCI-H358,0.216,0.192,0.234,0.211,0.213,0.639,0.543,0.566,0.66,0.7,0.134,0.131,0.146,0.148,0.123,0.707,0.794,0.801,0.892,0.998
NCI-H441,0.279,0.23,0.272,0.244,0.228,0.715,0.774,0.608,0.889,0.945,0.183,0.238,0.254,0.242,0.224,0.59,0.491,0.493,0.53,0.615
NCI-H460,0.541,0.46,0.482,0.467,0.466,0.865,1.1,0.848,1.12,0.948,0.23,0.231,0.194,0.233,0.12,0.736,0.577,0.789,1.09,1.19
NCI-H520,0.407,0.462,0.538,0.508,0.486,0.717,0.671,0.307,0.291,0.36,0.206,0.268,0.215,0.225,0.23,0.87,0.902,0.528,0.409,0.552
NCI-H647,0.45,0.344,0.401,0.42,0.366,1.26,1.32,1.02,1.05,1.38,0.47,0.433,0.399,0.347,0.397,1.33,1.37,1.33,1.24,1.44
NCI-H650,0.304,0.339,0.371,,0.313,0.949,0.75,0.631,0.77,0.773,0.311,0.343,0.339,,0.283,1.03,0.973,0.63,0.858,0.791
NCI-H661,0.566,0.541,0.546,0.535,0.602,,0.965,0.938,0.988,1.07,0.433,0.407,0.392,0.41,0.384,0.593,0.636,0.603,0.762,0.463
NCI-H727,0.797,0.979,0.708,0.845,0.939,0.697,0.65,0.882,0.838,0.754,0.671,0.663,0.673,0.66,0.574,0.233,0.324,0.386,0.259,0.247
NCI-H838,0.446,0.414,0.468,0.464,0.486,0.869,1.02,0.747,0.809,0.885,0.24,0.223,0.229,0.22,0.211,1.02,1.08,0.987,1.02,1.04
NCI-H1355,0.347,0.379,0.353,0.419,0.344,1.07,1.09,1.09,1.05,1.14,0.438,0.4,0.393,0.427,0.388,0.889,0.927,0.867,0.791,0.785
